What was measured:
Assay type in all cases: in vivo
[1] = system: ABUTH, Velvetleaf, Abutilon theophrasti, Medic.; assay: Postemergence herbicidal evaluation (Example 147); conditions: rating scale 0-9, two to three weeks after treatment
In short: (§1)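 Seedlings grown about two weeks, then sprayed (nozzle at 40 psi) with compound in 80/20 acetone/water plus 1.0% methylated seed oil at about 0.016 to 0.032 kg/ha. Kept in greenhouse; visual injury rated 0-9 versus untreated control two to three weeks after treatment; replicate tests averaged.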

[2] = system: ALOMY, Blackgrass, Alopecurus myosuroides; assay: Postemergence herbicidal evaluation (Example 147); conditions: rating scale 0-9, two to three weeks after treatment
In short: as §1

[3] = system: AMBEL, Ragweed, Common, Ambrosia artemiisifolia, L.; assay: Postemergence herbicidal evaluation (Example 147); conditions: rating scale 0-9, two to three weeks after treatment
In short: as §1

[4] = system: CHEAL, Lambsquarters, Chenopodium album, L. Common; assay: Postemergence herbicidal evaluation (Example 147); conditions: rating scale 0-9, two to three weeks after treatment
In short: as §1

[5] = system: DIGSA, Crabgrass, (Hairy) L, Digitaria sanguinalis, (L)Scop; assay: Postemergence herbicidal evaluation (Example 147); conditions: rating scale 0-9, two to three weeks after treatment
In short: as §1

[6] = system: ECHCG, Barnyardgrass, Echinochloa crusgalli, (L.)Beau; assay: Postemergence herbicidal evaluation (Example 147); conditions: rating scale 0-9, two to three weeks after treatment
In short: as §1

[7] = system: GLXMA, Soybean, Glycine max, (L.) Merr.; assay: Postemergence herbicidal evaluation (Example 147); conditions: rating scale 0-9, two to three weeks after treatment
In short: as §1

[8] = system: IPOHE, Morningglory, Ivyleaf, Ipomoea hederacea, (L)Jacq.; assay: Postemergence herbicidal evaluation (Example 147); conditions: rating scale 0-9, two to three weeks after treatment
In short: as §1

[9] = system: SETVI, Green foxtail, Setaria viridis, (L.)Beau; assay: Postemergence herbicidal evaluation (Example 147); conditions: rating scale 0-9, two to three weeks after treatment
In short: as §1

[10] = system: TRZAW, Winter wheat, Tritium Aestivum, L. (Winter); assay: Postemergence herbicidal evaluation (Example 147); conditions: rating scale 0-9, two to three weeks after treatment
In short: as §1

[11] = system: XANST, Cocklebur, Xanthium strumariam; assay: Postemergence herbicidal evaluation (Example 147); conditions: rating scale 0-9, two to three weeks after treatment
In short: as §1

[12] = system: ZEAMX, Field corn, Zea mays L.; assay: Postemergence herbicidal evaluation (Example 147); conditions: rating scale 0-9, two to three weeks after treatment
In short: as §1

[13] = system: ABUTH, Velvetleaf, Abutilon theophrasti, Medic.; assay: Preemergence herbicidal evaluation (Example 148); conditions: rating scale 0-9, two to four weeks after treatment
In short: (§2)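 Greenhouse cups of separately sown species were treated pre-emergence at about 0.125–0.250 kg/ha. Evaluation was visual, 2–4 weeks after spraying, with averaged values for repeated tests.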

[14] = system: ALOMY, Blackgrass, Alopecurus myosuroides; assay: Preemergence herbicidal evaluation (Example 148); conditions: rating scale 0-9, two to four weeks after treatment
In short: as §2

[15] = system: AMBEL, Ragweed, Common, Ambrosia artemiisifolia, L.; assay: Preemergence herbicidal evaluation (Example 148); conditions: rating scale 0-9, two to four weeks after treatment
In short: as §2

[16] = system: CHEAL, Lambsquarters, Chenopodium album, L. Common; assay: Preemergence herbicidal evaluation (Example 148); conditions: rating scale 0-9, two to four weeks after treatment
In short: as §2

[17] = system: DIGSA, Crabgrass, (Hairy) L, Digitaria sanguinalis, (L)Scop; assay: Preemergence herbicidal evaluation (Example 148); conditions: rating scale 0-9, two to four weeks after treatment
In short: as §2

[18] = system: ECHCG, Barnyardgrass, Echinochloa crusgalli, (L.)Beau; assay: Preemergence herbicidal evaluation (Example 148); conditions: rating scale 0-9, two to four weeks after treatment
In short: as §2

[19] = system: GLXMA, Soybean, Glycine max, (L.) Merr.; assay: Preemergence herbicidal evaluation (Example 148); conditions: rating scale 0-9, two to four weeks after treatment
In short: as §2

[20] = system: IPOHE, Morningglory, Ivyleaf, Ipomoea hederacea, (L)Jacq.; assay: Preemergence herbicidal evaluation (Example 148); conditions: rating scale 0-9, two to four weeks after treatment
In short: as §2

[21] = system: SETVI, Green foxtail, Setaria viridis, (L.)Beau; assay: Preemergence herbicidal evaluation (Example 148); conditions: rating scale 0-9, two to four weeks after treatment
In short: as §2

[22] = system: TRZAW, Winter wheat, Tritium Aestivum, L. (Winter); assay: Preemergence herbicidal evaluation (Example 148); conditions: rating scale 0-9, two to four weeks after treatment
In short: as §2

[23] = system: XANST, Cocklebur, Xanthium strumariam; assay: Preemergence herbicidal evaluation (Example 148); conditions: rating scale 0-9, two to four weeks after treatment
In short: as §2

[24] = system: ZEAMX, Field corn, Zea mays L.; assay: Preemergence herbicidal evaluation (Example 148); conditions: rating scale 0-9, two to four weeks after treatment
In short: as §2

CCN(CC)S(=O)(=O)NC(=O)c1cc(-n2c(=O)cc(C(F)(F)F)n(C)c2=O)c(F)cc1Cl [Example 68]
6.0: Postemergence herbicidal rating DIGSA ([5]; rate 0.016 kg/ha) | Postemergence herbicidal rating DIGSA ([5]; rate 0.032 kg/ha)
4.0: Preemergence herbicidal rating DIGSA ([17]; rate 0.25 kg/ha) | Preemergence herbicidal rating ECHCG ([18]; rate 0.25 kg/ha) | Preemergence herbicidal rating SETVI ([21]; rate 0.125 kg/ha)
8.5: Postemergence herbicidal rating GLXMA ([7]; rate 0.016 kg/ha) | Postemergence herbicidal rating GLXMA ([7]; rate 0.032 kg/ha)
3.0: Preemergence herbicidal rating DIGSA ([17]; rate 0.125 kg/ha) | Preemergence herbicidal rating ECHCG ([18]; rate 0.125 kg/ha)
7.5: Postemergence herbicidal rating ZEAMX ([12]; rate 0.032 kg/ha)
5.5: Postemergence herbicidal rating TRZAW ([10]; rate 0.032 kg/ha)
0.0: Preemergence herbicidal rating ALMOY ([14]; rate 0.125 kg/ha) | Preemergence herbicidal rating ALMOY ([14]; rate 0.25 kg/ha) | Preemergence herbicidal rating TRZAW ([22]; rate 0.125 kg/ha) | Preemergence herbicidal rating TRZAW ([22]; rate 0.25 kg/ha)
7.0: Postemergence herbicidal rating SETVI ([9]; rate 0.016 kg/ha) | Postemergence herbicidal rating ZEAMX ([12]; rate 0.016 kg/ha) | Preemergence herbicidal rating GLXMA ([19]; rate 0.125 kg/ha)
1.0: Postemergence herbicidal rating ALMOY ([2]; rate 0.016 kg/ha) | Postemergence herbicidal rating ALMOY ([2]; rate 0.032 kg/ha) | Preemergence herbicidal rating ZEAMX ([24]; rate 0.125 kg/ha)
8.0: Postemergence herbicidal rating CHEAL ([4]; rate 0.016 kg/ha) | Postemergence herbicidal rating CHEAL ([4]; rate 0.032 kg/ha) | Postemergence herbicidal rating ECHCG ([6]; rate 0.016 kg/ha) | Postemergence herbicidal rating ECHCG ([6]; rate 0.032 kg/ha) | Preemergence herbicidal rating CHEAL ([16]; rate 0.125 kg/ha) | Preemergence herbicidal rating CHEAL ([16]; rate 0.25 kg/ha) | Preemergence herbicidal rating GLXMA ([19]; rate 0.25 kg/ha) | Preemergence herbicidal rating SETVI ([21]; rate 0.25 kg/ha)
5.0: Postemergence herbicidal rating TRZAW ([10]; rate 0.016 kg/ha)
2.0: Preemergence herbicidal rating ZEAMX ([24]; rate 0.25 kg/ha)
9.0: Postemergence herbicidal rating ABUTH ([1]; rate 0.016 kg/ha) | Postemergence herbicidal rating ABUTH ([1]; rate 0.032 kg/ha) | Postemergence herbicidal rating AMBEL ([3]; rate 0.016 kg/ha) | Postemergence herbicidal rating AMBEL ([3]; rate 0.032 kg/ha) | Postemergence herbicidal rating IPOHE ([8]; rate 0.016 kg/ha) | Postemergence herbicidal rating IPOHE ([8]; rate 0.032 kg/ha) | Postemergence herbicidal rating SETVI ([9]; rate 0.032 kg/ha) | Postemergence herbicidal rating XANST ([11]; rate 0.016 kg/ha) | Postemergence herbicidal rating XANST ([11]; rate 0.032 kg/ha) | Preemergence herbicidal rating ABUTH ([13]; rate 0.125 kg/ha) | Preemergence herbicidal rating ABUTH ([13]; rate 0.25 kg/ha) | Preemergence herbicidal rating AMBEL ([15]; rate 0.125 kg/ha) | Preemergence herbicidal rating AMBEL ([15]; rate 0.25 kg/ha) | Preemergence herbicidal rating IPOHE ([20]; rate 0.125 kg/ha) | Preemergence herbicidal rating IPOHE ([20]; rate 0.25 kg/ha) | Preemergence herbicidal rating XANST ([23]; rate 0.125 kg/ha) | Preemergence herbicidal rating XANST ([23]; rate 0.25 kg/ha)

From US6689773B2, “Uracil substituted phenyl sulfamoyl carboxamides” (BASF Aktiengesellschaft, priority 2000, dated 2004)
